Test results: patent US11045456B2, “Compositions and methods for treating COPD and other inflammatory conditions” (Georgia State University Research Foundation, Inc., priority 2015, dated 2021)

How the values were obtained:
[1] = tested on: PDE4B; test: PDE4B mRNA expression (Q-PCR) in primary NHBE cells stimulated with NTHi; type: cell-based, human; conditions: Rof 0.1 μM 1 hour, then 1.5-hour NTHi
Procedure: (§1) Bacterial strains and culture condition. Clinical isolates of NTHi strain 12 were used in this study (Ishinaga et al., EMBO J., 26(4):1150-1162, 2007). Bacteria were grown on chocolate agar plates at 37° C. in an atmosphere of 5% CO2 overnight and subsequently inoculated in brain heart infusion (BHI) broth supplemented with 3.5 μg/mL NAD and hemoglobin (BD Biosciences). After overnight incubation, the bacteria were subcultured into fresh broth and the log phase bacteria, monitored by measurement of optical density (OD) value, were washed and suspended in DMEM for in vitro cell experiments and in isotonic saline for in vivo animal experiments. For all in vitro experiments except the dose dependent experiment, NTHi was treated at multiplicity of infection (MOI) of 50.
Cell culture. All media described below were supplemented with 10% fetal bovine serum (Sigma-Aldrich). Human bronchial epithelial BEAS-2B cells were maintained in RPMI medium (Life Technologies) (ATCC® CRL-9609™). Human primary bronchial epithelial NHBE (Lonza) cells were maintained in bronchial epithelial growth media (BEGM) supplemented with BEGM SingleQuots (Jono et al., J. Biol. Chem. 277(47):45547-45557, 2002). BEAS-2B cells stably expressing human PDE4B2 (PDE4B2-stable cells) were obtained by plasmid transfection following Geneticin selection (300 μg/mL). […]

[2] = tested on: PDE4A and 4C; test: Expression of other PDE4 family members (PDE4A, 4C) in BEAS-2B cells; type: cell-based, human; conditions: NTHi or roflumilast
Source text: Cell culture. All media described below were supplemented with 10% fetal bovine serum (Sigma-Aldrich). Human bronchial epithelial BEAS-2B cells were maintained in RPMI medium (Life Technologies) (ATCC® CRL-9609™). Human primary bronchial epithelial NHBE (Lonza) cells were maintained in bronchial epithelial growth media (BEGM) supplemented with BEGM SingleQuots (Jono et al., J. Biol. Chem. 277(47):45547-45557, 2002). BEAS-2B cells stably expressing human PDE4B2 (PDE4B2-stable cells) were obtained by plasmid transfection following Geneticin selection (300 μg/mL). Cells were cultured in a humidified atmosphere of 5% CO2 at 37° C.

[3] = tested on: PDE4B2; test: PDE4B2 protein expression (Western blot) in airway epithelial cell extracts; type: cell-based, human; conditions: NTHi and roflumilast
Procedure: (§2) Western blot. Whole-cell extracts and mouse lung tissue extracts were recovered with lysis buffer (50 mM Tris-HCl at pH7.4, 1% NP40, 0.25% deoxycholate, 150 mM NaCl, 1 mM EDTA, 1 mM NaF, supplemented with 1 mM Na3VO4 and PIC). For PDE4B protein, cell extracts were recovered with Buffer A as described above. Cell or tissue extracts were separated on 8% SDS-PAGE gels and transferred to polyvinylidene difluoride (PVDF) membrane (GE Healthcare Life Sciences). The membrane was blocked with a solution of TBS containing 0.1% Tween 20 (TBS-T) and 5% non-fat dry milk. The membrane was then incubated in a 1:1,000-1:2,000 dilution of a primary antibody in 5% BSA-TBS-T. After washing (×3) with TBS-T, the membrane was incubated with a 1:5,000 dilution of the corresponding secondary antibody in 2.5% non-fat dry milk-TBS-T. Respective proteins were visualized using Amersham ECL Prime Regent (GE Healthcare Life Sciences).

[4] = tested on: PDE4B2; test: PDE4B2 protein expression (Western blot) in mouse lung tissue extracts; type: in vivo; conditions: NTHi and roflumilast
Procedure: as §2
Mice and animal experiments. […]
Immunofluorescent staining. Formalin-fixed paraffin-embedded mouse lung tissue was sectioned (4 μm) and PDE4B protein was detected using a rabbit anti-PDE4B and an FITC-conjugated goat anti-rabbit IgG (Santa Cruz Biotechnology). Stained sections were then imaged, and images were recorded under light- and fluorescence-microscopy systems (AxioVert 40 CFL, AxioCam MRC, and AxioVision LE Image system, Carl Zeiss).

[5] = tested on: CCL5, CCL7, CXCL10, CXCL11, IL-8, GM-CSF and TNF-α; test: NTHi-induced expression of pro-inflammatory mediators in BEAS-2B cells; type: cell-based, human
Procedure: as §1, with “Clinical isolates of NTHi strain 12 were used in this study (Ishinaga et al., EMBO J., 26(4):1150-1162, 2007).” left out
Cell culture. All media described below were supplemented with 10% fetal bovine serum (Sigma-Aldrich). […] BEAS-2B cells stably expressing human PDE4B2 (PDE4B2-stable cells) were obtained by plasmid transfection following Geneticin selection (300 μg/mL). Cells were cultured in a humidified atmosphere of 5% CO2 at 37° C.

[6] = tested on: CCL5, CCL7, CXCL10 and CXCL11; test: NTHi-induced chemokine expression in PDE4B2-stable cells; type: cell-based, human
[7] = tested on: NF-κB promoter; test: IKKβ-CA-induced NF-κB promoter activity (luciferase) in PDE4B2-transfected cells; type: cell-based, human; conditions: up to 10 μM
Procedure: Plasmids, transfections and luciferase assay. […] Empty vector was used as a control and was also added where necessary to ensure an equivalent amount of input DNA. All transient transfections were carried out in triplicate using TRANSIT-LT1® reagent (Minis) following the manufacturer's instruction.

[8] = tested on: p65 and PKA-Cβ; test: Co-immunoprecipitation of p65 and PKA-Cβ in BEAS-2B cells; type: cell-based, human; conditions: BEAS-2B cells transfected with p65 and PKA-Cβ; co-treatment of roflumilast with NTHi
Procedure: Immunoprecipitation. Cell extracts were incubated with 1 μg of primary antibodies overnight at 4° C., followed by a 2 h incubation with protein G PLUS-agarose beads (Santa Cruz Biotechnology). Immunoprecipitates were then suspended in a sample buffer, separated on 8% SDS-PAGE gels, transferred to PVDF membrane, and detected by immunoblot analysis as described above.

[9] = tested on: p65 or PKA-Cβ; test: Nuclear expression level of p65 or PKA-Cβ in BEAS-2B cells; type: cell-based, human
Procedure: Subcellular fractionation. Cells were washed twice and […] with ice cold PBS and centrifuged at 3,000×g for 5 min. The cells were then suspended with Buffer A (10 mM HEPES at pH7.4, 10 mM KCl, 0.1 mM EDTA, 0.1 mM EGTA, 1 mM DTT, supplemented with 1 mM Na3VO4 and PIC) and incubated on ice for 10 min (Schreiber et al., Nucleic Acids Res. 17(15):6419, 1989). The cells were lysed by adding NP40 (0.5%) and vortexing for 15 sec. then centrifuged at 3,000×g for 5 min before the supernatants were removed (cytosol fraction). Precipitates were resuspended in Buffer B (20 mM HEPES at pH7.5, 5 mM NaCl, 1 mM EDTA, […], 1 mM DTT, supplemented with 1 mM Na3VO4 and PIC) and incubated on ice for 10 min. before vortexing and centrifuging at 16,000×g for 15 min to recover the supernatants (nuclear fraction). Western blot. Whole-cell extracts and mouse lung tissue extracts were recovered with lysis buffer (50 mM Tris-HCl at pH7.4, 1% NP40, 0.25% deoxycholate, 150 mM NaCl, 1 mM EDTA, 1 mM NaF, supplemented with 1 mM Na3VO4 and PIC). For PDE4B protein, cell extracts were recovered with Buffer A as described above. Cell or tissue extracts were separated on 8% SDS-PAGE gels and transferred to polyvinylidene difluoride (PVDF) membrane (GE Healthcare Life Sciences). The membrane was blocked with a solution of TBS containing 0.1% Tween 20 (TBS-T) and 5% non-fat dry milk. […]

[10] = tested on: PDE4; conditions: estimated; Bender and Beavo; cited from earlier work
[11] = tested on: PDE4B; test: PDE4B mRNA expression in lung tissues of NTHi-inoculated mice; conditions: mice, Rof 5 mg/kg i.p. 2 hours before intratracheal NTHi 5×10^7 cfu per lung, after 5 hours

O=C(Nc1c(Cl)cncc1Cl)c1ccc(OC(F)F)c(OCC2CC2)c1 [roflumilast]
PDE4B mRNA expression [1]: increasing PDE4B mRNA significantly
expression of PDE4A and 4C [2]: not up-regulated
~70-kDa PDE4B isoform (PDE4B2 protein) [3]: induced an increase
~70-kDa PDE4B isoform (PDE4B2 protein) [4]: induced an increase
NTHi-induced induction of CCL5, CCL7 and IL-8 ([5]; BEAS-2B cells): modestly suppressed
NTHi-induced induction of TNF-α and GM-CSF ([5]; BEAS-2B cells): markedly inhibited
NTHi-induced CXCL10 and CXCL11 induction ([5]; BEAS-2B cells, even at higher concentration): almost no inhibitory effect
efficacy in suppressing Group A-chemokines ([5]; in PDE4B-depleted but not in PDE4D-depleted cells): more efficacious
NTHi-induced expression of CCL5, CCL7, CXCL10 and CXCL11 (Group A-chemokines) ([6]; highest concentration tested (10 μM)): unable to fully inhibit
NTHi-induced expression of CXCL10 and CXCL11 ([6]; lower dose of roflumilast (<1 μM)): slightly enhanced
IKKβ-CA-induced NF-κB promoter activity ([7]; cells overexpressing PDE4B2-WT or PDE4B2-D392A): unable to fully inhibit
IKKβ-CA-induced NF-κB promoter activity ([7]; cells transfected with PDE4B2-D392A): unable to fully inhibit
interaction of p65 and PKA-Cβ [8]: enhanced
nuclear expression level of p65 or PKA-Cβ [9]: did not affect
IC50 [10]: < 1 nM
PDE4B mRNA expression in lung tissues [11]: synergistically enhanced
PDE4B mRNA expression in lung tissues ([11]; listed as Rof): significantly elevated
